Experiments:
HCT-116 = test: Antiproliferative activity against human HCT116 cells incubated for 48 hrs by SRB assay; assay type: functional; settings: HCT-116, 48 h
MDA-MB-231 = test: Antiproliferative activity against human MDA-MB-231 cells incubated for 48 hrs by SRB assay; assay type: functional; settings: MDA-MB-231, 48 h

| Structure (SMILES) | GI50 (HCT-116) | GI50 (MDA-MB-231) |
| --- | --- | --- |
| O=C(Nc1nc2ccccc2[nH]1)c1ccc(CNC2=C(Cl)C(=O)c3ccccc3C2=O)cc1 | > 10 µM | 8.9 µM |
| O=C(Nc1ccc2[nH]ccc2c1)c1ccc(CNC2=C(Cl)C(=O)c3ccccc3C2=O)cc1 | > 10 µM | > 10 µM |
| O=C(Nc1ccc2[nH]cnc2c1)c1ccc(CNC2=C(Cl)C(=O)c3ccccc3C2=O)cc1 | > 10 µM | > 10 µM |
| O=C(Nc1cccnc1)c1ccc(CNC2=C(Cl)C(=O)c3ccccc3C2=O)cc1 | > 10 µM | > 10 µM |
| O=C(Nc1cccc2ncccc12)c1ccc(CNC2=C(Cl)C(=O)c3ccccc3C2=O)cc1 | > 10 µM | > 10 µM |
| O=C(Nc1ccccc1)c1ccc(CNC2=C(Cl)C(=O)c3ccccc3C2=O)cc1 | > 10 µM | > 10 µM |
| O=C(Nc1cccc2[nH]ccc12)c1ccc(CNC2=C(Cl)C(=O)c3ccccc3C2=O)cc1 | > 10 µM | > 10 µM |
| O=C(Nc1ccc(F)cc1)c1ccc(CNC2=C(Cl)C(=O)c3ccccc3C2=O)cc1 | > 10 µM | > 10 µM |
| O=C(Nc1ccc2ncccc2c1)c1ccc(CNC2=C(Cl)C(=O)c3ccccc3C2=O)cc1 | 6.8 µM | > 10 µM |

Source: ChEMBL document CHEMBL4130444, “1,4-Naphthoquinones as inhibitors of Itch, a HECT domain-E3 ligase, and tumor growth suppressors in multiple myeloma” (Eur J Med Chem, 2017)
